# According to US11976057B2, “MrgX2 antagonists” (GlaxoSmithKline Intellectual Property Development Limited, priority 2020, dated 2024):
# Target: T1, human MRGPRX2 (Homo sapiens, UniProt Q96LB1)
# T1 sequence (Q96LB1 1-330): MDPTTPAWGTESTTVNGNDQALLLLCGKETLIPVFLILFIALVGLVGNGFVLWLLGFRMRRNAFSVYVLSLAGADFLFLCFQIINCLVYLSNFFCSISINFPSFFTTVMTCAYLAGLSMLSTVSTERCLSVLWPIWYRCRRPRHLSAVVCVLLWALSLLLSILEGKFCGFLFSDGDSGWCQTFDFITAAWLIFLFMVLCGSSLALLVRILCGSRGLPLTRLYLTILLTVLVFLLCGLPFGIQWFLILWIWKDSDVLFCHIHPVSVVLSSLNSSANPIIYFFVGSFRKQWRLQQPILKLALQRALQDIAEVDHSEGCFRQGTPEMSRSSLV
# Test: Ca2+ mobilization assay (FLIPR TETRA): inhibition of Cortistatin-14 mediated MRGPRX2 activation
row,Compound,IC50 [nM]
1,"C[C@@H](C(=O)Nc1ccc(Oc2ccccn2)cn1)N1CCC(F)(F)[C@@H](c2ccc(=O)[nH]c2)C1 [Example 61, (S)-2-((S)-4,4-difluoro-3-(6-oxo-1,6-dihydropyridin-3-yl)piperidin-1-yl)-N-(5-(pyridin-2-yloxy)pyridin-2-yl)propanamide]",10 to 100
2,"CC(C(=O)Nc1ccc(Oc2ccc(F)cc2)nn1)N1CCC(F)(F)[C@@H](c2ccc(=O)[nH]c2)C1 (stereo partly drawn) [Example 63, 2-((S)-4,4-difluoro-3-(6-oxo-1,6-dihydropyridin-3-yl)piperidin-1-yl)-N-(6-(4-fluorophenoxy)pyridazin-3-yl)propanamide]",100 to 3160
3,"C[C@@H](C(=O)Nc1ccc(Oc2ncc(F)cc2F)cn1)N1CCC(F)(F)[C@@H](c2ccc(=O)[nH]c2)C1 [Example 66, (S)-2-((S)-4,4-difluoro-3-(6-oxo-1,6-dihydropyridin-3-yl)piperidin-1-yl)-N-(5-((3,5-difluoropyridin-2-yl)oxy)pyridin-2-yl)propanamide]",≤ 10
4,"C[C@@H](C(=O)Nc1ccc(Oc2ccc(F)cn2)cn1)N1CCC(F)(F)[C@@H](c2ccc(=O)[nH]c2)C1 [Example 69, (S)-2-((S)-4,4-difluoro-3-(6-oxo-1,6-dihydropyridin-3-yl)piperidin-1-yl)-N-(5-((5-fluoropyridin-2-yl)oxy)pyridin-2-yl)propanamide]",≤ 10
5,"C[C@@H](C(=O)Nc1cnc(C2CC2)cn1)N1CCC(F)(F)[C@@H](c2ccc(=O)[nH]c2)C1 [Example 70, (S)-N-(5-cyclopropyl-pyrazin-2-yl)-2-((S)-4,4-difluoro-3-(6-oxo-1,6-dihydropyridin-3-yl)piperidin-1-yl)propanamide]",100 to 3160
6,"CC(C(=O)Nc1ccc(Oc2ccc[nH]c2=O)cn1)N1CCC(F)(F)[C@@H](c2ccc(=O)[nH]c2)C1 (stereo partly drawn) [Example 72, 2-((S)-4,4-difluoro-3-(6-oxo-1,6-dihydropyridin-3-yl)piperidin-1-yl)-N-(5-((2-oxo-1,2-dihydropyridin-3-yl)oxy)pyridin-2-yl)propanamide]",10 to 100
7,"CC(C(=O)Nc1ccc(OC2CC3(CCC3)C2)cn1)N1CCC(F)(F)[C@@H](c2ccc(=O)[nH]c2)C1 (stereo partly drawn) [Example 73, 2-((S)-4,4-difluoro-3-(6-oxo-1,6-dihydropyridin-3-yl)piperidin-1-yl)-N-(5-(spiro[3.3]heptan-2-yloxy)pyridin-2-yl)propanamide]",100 to 3160
8,"C[C@@H](C(=O)Nc1ccc(Oc2ccncn2)cn1)N1CCC(F)(F)[C@@H](c2ccc(=O)[nH]c2)C1 [Example 74, (S)-2-((S)-4,4-difluoro-3-(6-oxo-1,6-dihydropyridin-3-yl)piperidin-1-yl)-N-(5-(pyrimidin-4-yloxy)pyridin-2-yl)propanamide]",100 to 3160
9,"C[C@@H](C(=O)Nc1cc(F)c(OCC2CC2)cn1)N1CCC(F)(F)[C@@H](c2ccc(=O)[nH]c2)C1 [Example 76, (S)-N-(5-(cyclopropyl-methoxy)-4-fluoropyridin-2-yl)-2-((S)-4,4-difluoro-3-(6-oxo-1,6-dihydropyridin-3-yl)piperidin-1-yl)propanamide]",10 to 100
10,"CC(C(=O)Nc1ccc(OC2CCC2)cn1)N1CCC(F)(F)[C@@H](c2ccc(=O)[nH]c2)C1 (stereo partly drawn) [Example 78, N-(5-cyclobutoxy-pyridin-2-yl)-2-((S)-4,4-difluoro-3-(6-oxo-1,6-dihydropyridin-3-yl)piperidin-1-yl)propanamide]",100 to 3160
11,"C[C@@H](C(=O)Nc1ccc(F)cn1)N1CCC(F)(F)[C@@H](c2ccc(=O)[nH]c2)C1 [Example 79, (S)-2-((S)-4,4-difluoro-3-(6-oxo-1,6-dihydropyridin-3-yl)piperidin-1-yl)-N-(5-fluoropyridin-2-yl)propanamide]",10 to 100
12,"C[C@@H](C(=O)Nc1ccc(/C=C\C2CC2)cn1)N1CCC(F)(F)[C@@H](c2ccc(=O)[nH]c2)C1 [Example 80, (S)-N-(5-((Z)-2-cyclopropylvinyl)pyridin-2-yl)-2-((S)-4,4-difluoro-3-(6-oxo-1,6-dihydropyridin-3-yl)piperidin-1-yl)propanamide]",10 to 100
13,"C[C@@H](C(=O)Nc1ccc(Cl)cn1)N1CCC(F)(F)[C@@H](c2ccc(=O)[nH]c2)C1 [Example 81, (S)-N-(5-chloropyridin-2-yl)-2-((S)-4,4-difluoro-3-(6-oxo-1,6-dihydropyridin-3-yl)piperidin-1-yl)propanamide]",100 to 3160

# The next lines start with the values.
row,IC50 [nM],Compound
1,3160 to 31600,"CC(C(=O)Nc1ccc(Oc2ccccc2C#N)nn1)N1CCC(F)(F)[C@@H](c2ccc(=O)[nH]c2)C1 (stereo partly drawn) [Example 62, N-(6-(2-cyanophenoxy)pyridazin-3-yl)-2-((S)-4,4-difluoro-3-(6-oxo-1,6-dihydropyridin-3-yl)piperidin-1-yl)propanamide]"
2,100 to 3160,"CC(C(=O)Nc1ccc(Oc2ccncc2)cn1)N1CCC(F)(F)[C@@H](c2ccc(=O)[nH]c2)C1 (stereo partly drawn) [Example 64, 2-((S)-4,4-difluoro-3-(6-oxo-1,6-dihydropyridin-3-yl)piperidin-1-yl)-N-(5-(pyridin-4-yloxy)pyridin-2-yl)propanamide]"
3,10 to 100,"C[C@@H](C(=O)Nc1ccc(Oc2ncccc2F)cn1)N1CCC(F)(F)[C@@H](c2ccc(=O)[nH]c2)C1 [Example 65, (S)-2-((S)-4,4-difluoro-3-(6-oxo-1,6-dihydropyridin-3-yl)piperidin-1-yl)-N-(5-((3-fluoropyridin-2-yl)oxy)pyridin-2-yl)propanamide]"
4,10 to 100,"CC(C(=O)Nc1ccc(Oc2cncc(F)c2)cn1)N1CCC(F)(F)[C@@H](c2ccc(=O)[nH]c2)C1 (stereo partly drawn) [Example 67, 2-((S)-4,4-difluoro-3-(6-oxo-1,6-dihydropyridin-3-yl)piperidin-1-yl)-N-(5-((5-fluoropyridin-3-yl)oxy)pyridin-2-yl)propanamide]"
5,10 to 100,"C[C@@H](C(=O)Nc1cnc(Oc2ccc(F)cc2)cn1)N1CCC(F)(F)[C@@H](c2ccc(=O)[nH]c2)C1 [Example 68, (S)-2-((S)-4,4-difluoro-3-(6-oxo-1,6-dihydropyridin-3-yl)piperidin-1-yl)-N-(5-(4-fluorophenoxy)pyrazin-2-yl)propanamide]"
6,100 to 3160,"C[C@@H](C(=O)Nc1ccc(OCC2CCC2)nn1)N1CCC(F)(F)[C@@H](c2ccc(=O)[nH]c2)C1 [Example 71, (S)-N-(6-(cyclobutyl-methoxy)pyridazin-3-yl)-2-((S)-4,4-difluoro-3-(6-oxo-1,6-dihydropyridin-3-yl)piperidin-1-yl)propanamide]"
7,10 to 100,"C[C@@H](C(=O)Nc1ccc(OCC2CC2)cn1)N1CCC(F)(F)[C@@H](c2ccc(=O)[nH]c2)C1 [Example 75, (S)-N-(5-(cyclopropyl-methoxy)pyridin-2-yl)-2-((S)-4,4-difluoro-3-(6-oxo-1,6-dihydropyridin-3-yl)piperidin-1-yl)propanamide]"
8,100 to 3160,"CC(C(=O)Nc1ccc2cc(C3CC3)cnc2n1)N1CCC(F)(F)[C@@H](c2ccc(=O)[nH]c2)C1 (stereo partly drawn) [Example 77, N-(6-cyclopropyl-1,8-naphthyridin-2-yl)-2-((S)-4,4-difluoro-3-(6-oxo-1,6-dihydropyridin-3-yl)piperidin-1-yl)propanamide]"
9,100 to 3160,"CC(C)c1ccc(NC(=O)C(C)N2CCC(F)(F)[C@@H](c3ccc(=O)[nH]c3)C2)nc1 (stereo partly drawn) [Example 82, 2-((S)-4,4-difluoro-3-(6-oxo-1,6-dihydropyridin-3-yl)piperidin-1-yl)-N-(5-isopropylpyridin-2-yl)propanamide]"
